In patent US10800752B2, “Substituted naphtho[2,3-b]furans as water-soluble prodrugs for preventing and/or treating cancer” (BOSTON BIOMEDICAL, INC., priority 2015, dated 2020):
Structures can show the parent of a compound that is named as a salt. One block for each compound: values may come before it.

Columns and labels:
Solubility test = settings: 50 mmol/L glycine buffer solution (pH 2.0), room temperature, 24 hours shaking
[1] = Evaluation of a conversion rate to 2-acetylnaphtho[2,3-b]furan-4,9-dione in human plasma; format: in vitro ADME; settings: 1 umol/L
Method in brief: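 Compounds at 1 umol/L incubated at 37° C in human plasma, CD1 mouse plasma or pH 7.4 phosphate buffer, sampled up to 120 minutes. After acidified acetonitrile protein removal, parent loss and conversion to 2-acetylnaphtho[2,3-b]furan-4,9-dione measured by LC-MS (ESI positive).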

[2] = Evaluation of a conversion rate to 2-acetylnaphtho[2,3-b]furan-4,9-dione in CD1 mouse plasma; format: in vitro ADME; settings: 1 umol/L
Description: For test compounds, the decrease rate of the test compounds and the conversion rate thereof to 2-acetylnaphtho[2,3-b]furan-4,9-dione in human plasma, CD1 mouse plasma, and pH 7.4 phosphate buffer solution were measured.
Test compounds were incubated at the concentration of 1 umol/L in human plasma (cat. no. 12250210, COSMO BIO), CD1 mouse plasma (cat. no. AP3054, KAC), and phosphate buffer solution at 37° C., and removed at predetermined times (0, 5, 10, 30, 60, and 120 minutes). After protein-removing treatment was performed, they are analyzed with LC-MS. It should be noted that the protein-removing treatment used acetonitrile containing: 10% volume of 1 mol/L hydrochloric acid; 1% volume of 46% citric acid; and phenytoin as an internal standard.
The measurement condition of LC-MS is as described below. LC-MS condition column: Kinetex 2.6 u PFP 100 A 50×2.1 mm Column temperature: 40° C.
Mobile phase: A: 0.1% formic acid-containing water
• B: 0.1% formic acid-containing acetonitrile A/B(min): 95/5(0)→5/95(3)→5/95(4)→95/5(4.1)→95/5(6) Flow rate: 0.4 mL/min Detection: ESI (positive mode) Injection volume: 10 uL
Measurement values are calculated from the peak area ratio in LC-MS between an internal standard material, phenytoin and an active form, 2-acetylnaphtho[2,3-b]furan-4,9-dione, and are expressed in %.
In the same way as Example 6, the incubation time was set as 120 minutes later, and the conversion rate of each of various test compounds to 2-acetylnaphtho[2,3-b]furan-4,9-dione in human plasma, CD1 mouse plasma, and pH 7.4 phosphate buffer solution was measured. A series of the present compounds were confirmed to be converted to 2-acetylnaphtho[2,3-b]furan-4,9-dione in pH 7.4 phosphate buffer solution in addition to human plasma and CD1 mouse plasma. Therefore, a series of the test compounds of the present invention were confirmed to be converted to the activated form via a route other than an enzymatic conversion.

[3] = Evaluation of a conversion rate to 2-acetylnaphtho[2,3-b]furan-4,9-dione in pH 7.4 phosphate buffer solution; format: physicochemical; settings: Phosphate buffer solution (pH 7.4), 1 umol/L, 37° C., incubation time 120 min
Method in brief: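 Compounds at 1 umol/L were incubated at 37° C in human plasma, CD1 mouse plasma or pH 7.4 phosphate buffer, sampled up to 120 minutes, acid/acetonitrile-deproteinised and analysed by LC-MS (ESI positive). Conversion (%) derived from the peak area ratio of the active form to phenytoin internal standard.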

[4] = Human plasma, 37° C., incubation time 120 min
[5] = CD1 mouse plasma, 37° C., incubation time 120 min

SMILES: CC(=O)c1cc2c(OC(=O)NC3CNC3)c3ccccc3c(OC(=O)NC3CNC3)c2o1.Cl.Cl [Example 10]
Solubility in pH 2.0 buffer solution (Solubility test): >5.0 mg/mL | % Measurement value (conversion rate to 2-acetylnaphtho[2,3-b]furan-4,9-dione) [1, 4]: 89% | % Measurement value (conversion rate to 2-acetylnaphtho[2,3-b]furan-4,9-dione) [2, 5]: 59% | % Measurement value (conversion rate to 2-acetylnaphtho[2,3-b]furan-4,9-dione) [3]: 58%

% Measurement value (conversion rate to 2-acetylnaphtho[2,3-b]furan-4,9-dione) ([1]; human, 120 min): 40% | % Measurement value (conversion rate to 2-acetylnaphtho[2,3-b]furan-4,9-dione) ([2]; CD1, mouse, 120 min): 44% | % Measurement value (conversion rate to 2-acetylnaphtho[2,3-b]furan-4,9-dione) [3]: 24%
SMILES: CC(=O)c1cc2c(OC(=O)OCCCCN)c3ccccc3c(OC(=O)OCCCCN)c2o1 [Example 21, 2-Acetylnaphtho[2,3-b]furan-4,9-diyl bis(4-aminobutyl)bis(carbonate)dihydrochloride]

SMILES: CCNCCCCOC(=O)Oc1c2ccccc2c(OC(=O)OCCCCNCC)c2oc(C(C)=O)cc12.Cl.Cl [Example 28]
% Measurement value (conversion rate to 2-acetylnaphtho[2,3-b]furan-4,9-dione) [1, 4]: 73% | % Measurement value (conversion rate to 2-acetylnaphtho[2,3-b]furan-4,9-dione) [2, 5]: 85% | % Measurement value (conversion rate to 2-acetylnaphtho[2,3-b]furan-4,9-dione) [3]: 34%

SMILES: COC(=O)[C@@H](N)CNC(=O)Oc1c2ccccc2c(OC(=O)NC[C@H](N)C(=O)OC)c2oc(C(C)=O)cc12.Cl.Cl [Example 32]
Solubility in pH 2.0 buffer solution (Solubility test): >5.0 mg/mL | % Measurement value (conversion rate to 2-acetylnaphtho[2,3-b]furan-4,9-dione) [1, 4]: 81% | % Measurement value (conversion rate to 2-acetylnaphtho[2,3-b]furan-4,9-dione) [2, 5]: 74% | % Measurement value (conversion rate to 2-acetylnaphtho[2,3-b]furan-4,9-dione) [3]: 46%

SMILES: CC(=O)c1cc2c(OC(=O)NCCCCCNCC(=O)O)c3ccccc3c(OC(=O)NCCCCCNCC(=O)O)c2o1.Cl.Cl [Example 35]
Solubility in pH 2.0 buffer solution (Solubility test): >5.0 mg/mL | % Measurement value (conversion rate to 2-acetylnaphtho[2,3-b]furan-4,9-dione) [1, 4]: 78% | % Measurement value (conversion rate to 2-acetylnaphtho[2,3-b]furan-4,9-dione) [2, 5]: 70% | % Measurement value (conversion rate to 2-acetylnaphtho[2,3-b]furan-4,9-dione) [3]: 38%

SMILES: COC(=O)CNCCNC(=O)Oc1c2ccccc2c(OC(=O)NCCNCC(=O)OC)c2oc(C(C)=O)cc12.Cl.Cl [Example 36]
Solubility in pH 2.0 buffer solution (Solubility test): >5.0 mg/mL | % Measurement value (conversion rate to 2-acetylnaphtho[2,3-b]furan-4,9-dione) [1, 4]: 73% | % Measurement value (conversion rate to 2-acetylnaphtho[2,3-b]furan-4,9-dione) [2, 5]: 66% | % Measurement value (conversion rate to 2-acetylnaphtho[2,3-b]furan-4,9-dione) [3]: 46%

SMILES: CC(=O)c1cc2c(OC(=O)NCCCCCCN)c3ccccc3c(OC(=O)NCCCCCCN)c2o1.Cl.Cl [Example 37]
Solubility in pH 2.0 buffer solution (Solubility test): >5.0 mg/mL | % Measurement value (conversion rate to 2-acetylnaphtho[2,3-b]furan-4,9-dione) [1, 4]: 35% | % Measurement value (conversion rate to 2-acetylnaphtho[2,3-b]furan-4,9-dione) [2, 5]: 33% | % Measurement value (conversion rate to 2-acetylnaphtho[2,3-b]furan-4,9-dione) [3]: 17%

SMILES: CC(=O)c1cc2c(OC(=O)NCCCCCCCN)c3ccccc3c(OC(=O)NCCCCCCCN)c2o1.Cl.Cl [Example 38]
Solubility in pH 2.0 buffer solution (Solubility test): >5.0 mg/mL | % Measurement value (conversion rate to 2-acetylnaphtho[2,3-b]furan-4,9-dione) [1, 4]: 85% | % Measurement value (conversion rate to 2-acetylnaphtho[2,3-b]furan-4,9-dione) [2, 5]: 72% | % Measurement value (conversion rate to 2-acetylnaphtho[2,3-b]furan-4,9-dione) [3]: 39%

SMILES: CC(=O)c1cc2c(OC(=O)NCCCCCCCCN)c3ccccc3c(OC(=O)NCCCCCCCCN)c2o1.Cl.Cl [Example 39]
Solubility in pH 2.0 buffer solution (Solubility test): >5.0 mg/mL | % Measurement value (conversion rate to 2-acetylnaphtho[2,3-b]furan-4,9-dione) [1, 4]: 80% | % Measurement value (conversion rate to 2-acetylnaphtho[2,3-b]furan-4,9-dione) [2, 5]: 62% | % Measurement value (conversion rate to 2-acetylnaphtho[2,3-b]furan-4,9-dione) [3]: 31%

SMILES: CC(=O)c1cc2c(OC(=O)NCCCNCC(=O)O)c3ccccc3c(OC(=O)NCCCNCC(=O)O)c2o1.Cl.Cl [Example 40]
Solubility in pH 2.0 buffer solution (Solubility test): >5.0 mg/mL | % Measurement value (conversion rate to 2-acetylnaphtho[2,3-b]furan-4,9-dione) [1, 4]: 89% | % Measurement value (conversion rate to 2-acetylnaphtho[2,3-b]furan-4,9-dione) [2, 5]: 86% | % Measurement value (conversion rate to 2-acetylnaphtho[2,3-b]furan-4,9-dione) [3]: 50%

SMILES: CC(=O)c1cc2c(OC(=O)NCCNCC(=O)NCC(=O)O)c3ccccc3c(OC(=O)NCCNCC(=O)NCC(=O)O)c2o1.Cl.Cl [Example 41]
Solubility in pH 2.0 buffer solution (Solubility test): >5.0 mg/mL | % Measurement value (conversion rate to 2-acetylnaphtho[2,3-b]furan-4,9-dione) [1, 4]: 86% | % Measurement value (conversion rate to 2-acetylnaphtho[2,3-b]furan-4,9-dione) [2, 5]: 81% | % Measurement value (conversion rate to 2-acetylnaphtho[2,3-b]furan-4,9-dione) [3]: 52%

SMILES: CC(=O)c1cc2c(OC(=O)NCCNCC(=O)O)c3ccccc3c(O)c2o1.Cl [Example 71]
Solubility in pH 2.0 buffer solution (Solubility test): 0.1 mg/mL | % Measurement value (conversion rate to 2-acetylnaphtho[2,3-b]furan-4,9-dione) [1, 4]: 61% | % Measurement value (conversion rate to 2-acetylnaphtho[2,3-b]furan-4,9-dione) [2, 5]: 68% | % Measurement value (conversion rate to 2-acetylnaphtho[2,3-b]furan-4,9-dione) [3]: 70%

SMILES: CC(=O)c1cc2c(OC(=O)NCCCCCN)c3ccccc3c(O)c2o1.Cl [Example 72]
Solubility in pH 2.0 buffer solution (Solubility test): 2.4 mg/mL | % Measurement value (conversion rate to 2-acetylnaphtho[2,3-b]furan-4,9-dione) [1, 4]: 53% | % Measurement value (conversion rate to 2-acetylnaphtho[2,3-b]furan-4,9-dione) [2, 5]: 42% | % Measurement value (conversion rate to 2-acetylnaphtho[2,3-b]furan-4,9-dione) [3]: 38%

SMILES: CC(=O)c1cc2c(OC(=O)NCCCCCCCN)c3ccccc3c(O)c2o1.Cl [Example 73]
Solubility in pH 2.0 buffer solution (Solubility test): 0.1 mg/mL | % Measurement value (conversion rate to 2-acetylnaphtho[2,3-b]furan-4,9-dione) [1, 4]: 88% | % Measurement value (conversion rate to 2-acetylnaphtho[2,3-b]furan-4,9-dione) [2, 5]: 63% | % Measurement value (conversion rate to 2-acetylnaphtho[2,3-b]furan-4,9-dione) [3]: 66%

SMILES: CC(=O)c1cc2c(OC(=O)NCCCCN)c3ccccc3c(O)c2o1.Cl [Example 74]
Solubility in pH 2.0 buffer solution (Solubility test): 4.9 mg/mL | % Measurement value (conversion rate to 2-acetylnaphtho[2,3-b]furan-4,9-dione) [1, 4]: 70% | % Measurement value (conversion rate to 2-acetylnaphtho[2,3-b]furan-4,9-dione) [2, 5]: 62% | % Measurement value (conversion rate to 2-acetylnaphtho[2,3-b]furan-4,9-dione) [3]: 82%

SMILES: CC(=O)c1cc2c(OC(=O)NCCCCCCCCN)c3ccccc3c(O)c2o1.Cl [Example 75]
Solubility in pH 2.0 buffer solution (Solubility test): 0.1 mg/mL | % Measurement value (conversion rate to 2-acetylnaphtho[2,3-b]furan-4,9-dione) [1, 4]: 79% | % Measurement value (conversion rate to 2-acetylnaphtho[2,3-b]furan-4,9-dione) [2, 5]: 60% | % Measurement value (conversion rate to 2-acetylnaphtho[2,3-b]furan-4,9-dione) [3]: 45%

SMILES: CC(=O)c1cc2c(OC(=O)NCCCCCNCC(=O)O)c3ccccc3c(O)c2o1.Cl [Example 76]
Solubility in pH 2.0 buffer solution (Solubility test): 0.4 mg/mL | % Measurement value (conversion rate to 2-acetylnaphtho[2,3-b]furan-4,9-dione) [1, 4]: 68% | % Measurement value (conversion rate to 2-acetylnaphtho[2,3-b]furan-4,9-dione) [2, 5]: 71% | % Measurement value (conversion rate to 2-acetylnaphtho[2,3-b]furan-4,9-dione) [3]: 57%

SMILES: CC(=O)c1cc2c(OC(=O)NCCCNCC(=O)O)c3ccccc3c(O)c2o1.Cl [Example 77]
Solubility in pH 2.0 buffer solution (Solubility test): 0.5 mg/mL | % Measurement value (conversion rate to 2-acetylnaphtho[2,3-b]furan-4,9-dione) [1, 4]: 68% | % Measurement value (conversion rate to 2-acetylnaphtho[2,3-b]furan-4,9-dione) [2, 5]: 70% | % Measurement value (conversion rate to 2-acetylnaphtho[2,3-b]furan-4,9-dione) [3]: 66%

SMILES: CC(=O)c1cc2c(O)c3ccccc3c(OC(=O)NCCNCC(=O)O)c2o1.Cl [Example 78]
Solubility in pH 2.0 buffer solution (Solubility test): 0.1 mg/mL | % Measurement value (conversion rate to 2-acetylnaphtho[2,3-b]furan-4,9-dione) [1, 4]: 54% | % Measurement value (conversion rate to 2-acetylnaphtho[2,3-b]furan-4,9-dione) [2, 5]: 66% | % Measurement value (conversion rate to 2-acetylnaphtho[2,3-b]furan-4,9-dione) [3]: 43%

SMILES: CC(=O)c1cc2c(O)c3ccccc3c(OC(=O)NCCNCC(=O)NCC(=O)O)c2o1.Cl [Example 83]
Solubility in pH 2.0 buffer solution (Solubility test): >5.0 mg/mL | % Measurement value (conversion rate to 2-acetylnaphtho[2,3-b]furan-4,9-dione) [1, 4]: 67% | % Measurement value (conversion rate to 2-acetylnaphtho[2,3-b]furan-4,9-dione) [2, 5]: 67% | % Measurement value (conversion rate to 2-acetylnaphtho[2,3-b]furan-4,9-dione) [3]: 31%
